Test system: PC-3 cells
Assay: MTT assay in PC-3 cells, 24 hr incubation
Assay type: cell-based
Conditions: Homo sapiens, NCs of similar sizes (~100 nm)
Procedure: Characterization and Evaluation of Ptxl-PLA NC: NC sizes were characterized by a ZetaPALS dynamic light scattering detector (Brookhaven Instruments, Holtsville, N.Y., USA) or by SEM. The resulting NCs were purified by ultrafiltration; their in vitro toxicities were then evaluated using MTT assay in PC-3 cells (24 hr incubation at 37 C). To determine the release kinetics of Ptxl-PLA, a PBS solution of NCs was equally divided into several portions and then incubated at 37 C. At scheduled time, the release study was terminated. DMF solution was added to dissolve all precipitation. All the samples were then dried, re-dissolved in DCM and reacted with Bu4NBH4 for 1.5 hours. A drop of acetic acid was added into the solution. The solution was stirred for 20 min before the solvent was evaporated. The residual solid was reconstituted in acetonitrile for RP HPLC analysis (Curosil, 250×4.6 mm, 5μ; Phenomenex, Torrence, Calif., USA).
PC-3 cells were plated in a 96-well plate for 24 h (10,000 cells per well). On the day of experiments, cells were washed with prewarmed PBS and different concentration of fresh prepared NCs (prepared in 1×PBS) was added. The control cells were incubated with medium. […] The resulting crystals were dissolved and final cell viability was assessed colorimetrically by microplate reader at 655 nm. […]

- IC50: 87 nM
Structure (SMILES): CC(=O)O[C@H]1C(=O)[C@@]2(C)[C@H]([C@H](OC(=O)c3ccccc3)[C@]3(O)C[C@H](OC(=O)[C@H](O)[C@@H](NC(=O)c4ccccc4)c4ccccc4)C(C)=C1C3(C)C)[C@]1(OC(C)=O)CO[C@@H]1C[C@@H]2O [Ptxl, paclitaxel]

Reference: US9789195B2, “Particulate drug delivery methods” (priority 2007, dated 2017)
